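Grown in 96-well plates, cells were treated for 48 hours with each compound at five concentrations. Insufficient inhibition: endpoint recorded as highest concentration tested. GI50 = concentration required for 50% inhibition of growth. The concentration for full growth arrest is given as TGI.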
Key:
Assay in all cases: inhibition of tumour cell growth, NCI panel, 48 h
[1] = test system: MOLT-4 leukemia
[2] = test system: SW-620 colon
[3] = test system: A549 NSCLC
[4] = test system: M14 melanoma
[5] = test system: RXF 393 renal
[6] = test system: NCI/ADR-RES ovarian
[7] = test system: UACC-62 melanoma
[8] = test system: ACHN renal
[9] = test system: SK-MEL-5 melanoma
[10] = test system: 786-0 renal
[11] = test system: HOP-62 NSCLC
[12] = test system: NCI-H23 lung
[13] = test system: CCRF-CEM leukemia
[14] = test system: SK-MEL-28 melanoma
[15] = test system: NCI-H460 lung
[16] = test system: SK-OV-3 ovarian
[17] = test system: K-562 leukemia
[18] = test system: CAKI-1 renal
[19] = test system: U251 CNS
[20] = test system: HL-60(TB) leukemia
[21] = test system: IGROV1 ovarian
[22] = test system: COLO 205 colon
[23] = test system: SR leukemia
[24] = test system: MDA-MB-435
[25] = test system: SK-MEL-2 melanoma
[26] = test system: OVCAR-5 ovarian
[27] = test system: SF-268 CNS
[28] = test system: OVCAR-4 ovarian
[29] = test system: MCF7 breast
[30] = test system: MALME-3M melanoma
[31] = test system: RPMI-8226 leukemia
[32] = test system: T-47D breast
[33] = test system: SNB-75 CNS
[34] = test system: HT29 colon
[35] = test system: HCT-116 colon
[36] = test system: DU-145 prostate
[37] = test system: EKVX NSCLC
[38] = test system: SF-295 CNS
[39] = test system: HCC-2998 colon
[40] = test system: NCI-H522 lung
[41] = test system: LOX IMVI melanoma
[42] = test system: KM12 colon
[43] = test system: UO-31 renal
[44] = test system: OVCAR-3 ovarian
[45] = test system: SNB-19 CNS
[46] = test system: HS 578T breast
[47] = test system: PC-3 prostate
[48] = test system: UACC-257 melanoma
[49] = test system: SF-539 CNS
[50] = test system: HOP-92 NSCLC
[51] = test system: TK-10 renal
[52] = test system: BT-549 breast
[53] = test system: HCT-15 colon
[54] = test system: NCI-H226 lung
[55] = test system: OVCAR-8 ovarian
[56] = test system: A498 renal
[57] = test system: MDA-MB-231 breast

O=C1c2ccccc2-c2nnc(-c3ccccc3)cc21
TGI [1]: > 10 µM | TGI [2]: > 10 µM | TGI [3]: > 10 µM | TGI [4]: > 10 µM | TGI [5]: > 10 µM | TGI [6]: > 10 µM | TGI [7]: > 10 µM | TGI [8]: > 10 µM | TGI [9]: > 10 µM | TGI [10]: > 10 µM | TGI [11]: > 10 µM | TGI [12]: > 10 µM | TGI [13]: > 10 µM | TGI [14]: > 10 µM | TGI [15]: > 10 µM | TGI [16]: > 10 µM | TGI [17]: > 10 µM | TGI [18]: > 10 µM | TGI [19]: > 10 µM | TGI [20]: > 10 µM | TGI [21]: > 10 µM | TGI [22]: > 10 µM | TGI [23]: > 10 µM | TGI [24]: > 10 µM | TGI [25]: > 10 µM | TGI [26]: > 10 µM | TGI [27]: > 10 µM | TGI [28]: > 10 µM | TGI [29]: > 10 µM | TGI [30]: > 10 µM | TGI [31]: > 10 µM | TGI [32]: > 10 µM | TGI [33]: > 10 µM

CCN(CC)c1ccc2c(c1)Oc1nc(N)c(C#N)c(N)c1C2Sc1ccc(SC)cc1 (stereo not given)
GI50 [34]: 2.33 µM | TGI [34]: 4.61 µM | GI50 [1]: 1.33 µM | TGI [1]: 4.6 µM | GI50 [2]: 1.88 µM | TGI [2]: 3.68 µM | GI50 [35]: 1.46 µM | TGI [35]: 2.81 µM | GI50 [3]: 1.94 µM | TGI [3]: 3.5 µM | GI50 [36]: 1.82 µM | TGI [36]: 3.21 µM | GI50 [4]: 1.74 µM | TGI [4]: 3.47 µM | GI50 [5]: 1.66 µM | TGI [5]: 3.31 µM | GI50 [6]: 2.39 µM | TGI [6]: 6.13 µM | GI50 [37]: 0.528 µM | TGI [37]: 1.97 µM | GI50 [7]: 1.48 µM | TGI [7]: 2.96 µM | GI50 [38]: 1.67 µM | TGI [38]: 3.12 µM | GI50 [39]: 1.96 µM | TGI [39]: 3.47 µM | GI50 [8]: 1.68 µM | TGI [8]: 3.04 µM | GI50 [9]: 1.65 µM | TGI [9]: 3.01 µM | GI50 [10]: 1.75 µM | TGI [10]: 3.19 µM | GI50 [40]: 2.42 µM | TGI [40]: 4.31 µM | GI50 [11]: 1.76 µM | TGI [11]: 3.26 µM | GI50 [12]: 1.58 µM | TGI [12]: 3.16 µM | GI50 [13]: 1.27 µM | TGI [13]: 5.02 µM | GI50 [14]: 2.05 µM | TGI [14]: 3.91 µM | GI50 [15]: 1.8 µM | TGI [15]: 3.69 µM | GI50 [41]: 1.39 µM | TGI [41]: 2.75 µM | GI50 [16]: 2.16 µM | TGI [16]: 3.96 µM | GI50 [17]: 2.33 µM | TGI [17]: 5.69 µM | GI50 [42]: 1.66 µM | TGI [42]: 3.46 µM | GI50 [43]: 1.51 µM | TGI [43]: 2.84 µM | GI50 [44]: 1.73 µM | TGI [44]: 3.17 µM | GI50 [45]: 1.52 µM | TGI [45]: 2.9 µM | GI50 [46]: 2.15 µM | TGI [46]: 7.1 µM | GI50 [47]: 1.41 µM | TGI [47]: 2.81 µM | GI50 [19]: 1.35 µM | TGI [19]: 2.7 µM | GI50 [20]: 1.97 µM | TGI [20]: 5.15 µM | GI50 [21]: 1.57 µM | TGI [21]: 3.37 µM | GI50 [22]: 1.84 µM | TGI [22]: 3.55 µM | GI50 [23]: 0.436 µM | TGI [23]: 3.87 µM | GI50 [48]: 3.23 µM | TGI [48]: 6.22 µM | GI50 [24]: 1.86 µM | TGI [24]: 3.58 µM | GI50 [49]: 1.64 µM | TGI [49]: 3 µM | GI50 [25]: 2.48 µM | TGI [25]: 5.51 µM | GI50 [50]: 1.72 µM | TGI [50]: 3.43 µM | GI50 [26]: 2.37 µM | TGI [26]: 4.75 µM | GI50 [27]: 1.69 µM | TGI [27]: 3.44 µM | GI50 [51]: 2.59 µM | TGI [51]: 4.1 µM | GI50 [52]: 1.42 µM | TGI [52]: 2.78 µM | GI50 [28]: 1.75 µM | TGI [28]: 3.4 µM | GI50 [53]: 1.59 µM | TGI [53]: 3.07 µM | GI50 [54]: 1.53 µM | TGI [54]: 2.89 µM | GI50 [29]: 1.6 µM | TGI [29]: 3.65 µM | GI50 [55]: 2.08 µM | TGI [55]: 4.43 µM | GI50 [56]: 1.88 µM | TGI [56]: 3.44 µM | GI50 [57]: 1.54 µM | TGI [57]: 3.07 µM | GI50 [30]: 2.38 µM | TGI [30]: 4.72 µM | GI50 [31]: 2.5 µM | TGI [31]: 6.56 µM | GI50 [32]: 1.74 µM | TGI [32]: 3.94 µM | GI50 [33]: 1.56 µM | TGI [33]: 3.17 µM

— PubChem BioAssay (NCI)
